Measurements as given in PubChem BioAssay (NCI).
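Where inhibition never reached the appropriate level, the endpoint shown equals the highest concentration tested. Otherwise, values were interpolated linearly from a five-concentration, 48-hour dose response in 96-well plates. TGI: concentration producing complete growth inhibition.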

Assays:
Assay in all cases: inhibition of tumour cell growth, NCI panel, 48 h
786-0 renal = tested on: 786-0 renal
SN12C renal = tested on: SN12C renal
RPMI-8226 leukemia = tested on: RPMI-8226 leukemia
NCI-H23 lung = tested on: NCI-H23 lung
M14 melanoma = tested on: M14 melanoma
U251 CNS = tested on: U251 CNS
T-47D breast = tested on: T-47D breast
NCI-H226 lung = tested on: NCI-H226 lung
COLO 205 colon = tested on: COLO 205 colon
MDA-N = tested on: MDA-N
BT-549 breast = tested on: BT-549 breast
HT29 colon = tested on: HT29 colon
SF-539 CNS = tested on: SF-539 CNS
CAKI-1 renal = tested on: CAKI-1 renal
ACHN renal = tested on: ACHN renal
UO-31 renal = tested on: UO-31 renal
MDA-MB-435 = tested on: MDA-MB-435
SK-MEL-5 melanoma = tested on: SK-MEL-5 melanoma
HCT-116 colon = tested on: HCT-116 colon
OVCAR-3 ovarian = tested on: OVCAR-3 ovarian

Compound | TGI (786-0 renal) [µM] | TGI (SN12C renal) [µM] | TGI (RPMI-8226 leukemia) [µM] | TGI (NCI-H23 lung) [µM] | TGI (M14 melanoma) [µM] | TGI (U251 CNS) [µM] | TGI (T-47D breast) [µM] | TGI (NCI-H226 lung) [µM] | TGI (COLO 205 colon) [µM] | TGI (MDA-N) [µM] | TGI (BT-549 breast) [µM] | TGI (HT29 colon) [µM] | TGI (SF-539 CNS) [µM] | TGI (CAKI-1 renal) [µM] | TGI (ACHN renal) [µM] | TGI (UO-31 renal) [µM] | TGI (MDA-MB-435) [µM] | TGI (SK-MEL-5 melanoma) [µM] | TGI (HCT-116 colon) [µM] | TGI (OVCAR-3 ovarian) [µM]
NC(N)=NS(=O)(=O)c1ccc(Nc2c3ccccc3nc3ccc(C(=O)Nc4ccc(S(N)(=O)=O)cc4)cc23)cc1 | > 100 | > 100 | > 100 | > 100 | > 100 | > 100 | > 100 | > 100 | > 100 | > 100 | > 100 | > 100 | > 100 | > 100 | > 100 | > 100 | > 100 | > 100 | > 100 | > 100
O=c1oc2ccccc2c(-c2ccc(O)cc2)c1Oc1ccc(Cl)cc1 | 73 | 79.7 | 52.4 | 68.6 | 39 | 61.4 | > 100 | 86.3 | 56.2 | 67.6 | 84.3 | 64.1 | > 100 | > 100 | 97.2 | 51.9 | > 100 | 45.3 | 35.6 | 39.7
CCC(C#N)N(Cc1ccc(CN(C(=O)c2ccccc2)C(C#N)CC)cc1)C(=O)c1ccccc1 (stereo not given) | 50.2 | 69.3 | 42.7 | > 100 | > 100 | 56.1 | 67 | 78.1 | 31.3 | > 100 | 72.7 | 43.9 | 48.6 | > 100 | > 100 | 93.4 | 65.7 | 25.8 | 96.8 | 48.2
COc1cccc(N=N/C(=N/NC(=O)c2cc(Cl)ccc2O)c2ccc(N(CCC#N)CCC#N)cc2C)c1 | > 100 | > 100 | > 100 | > 100 | > 100 | > 100 | 58.4 | > 100 | 41.2 | > 100 | > 100 | > 100 | > 100 | > 100 | > 100 | > 100 | > 100 | > 100 | > 100 | 6.48
Cc1cc2c(cc1C)C(=O)c1ncccc1C2=O | > 100 | > 100 | > 100 | 50.9 | > 100 | > 100 | > 100 | > 100 | 82.4 | 36.2 | > 100 | > 100 | 90 | > 100 | > 100 | > 100 | 34.4 | 23.2 | 61.1 | 9.65
COc1ccc(Cc2nc3cc(Cl)ccc3o2)cc1 | > 100 | > 100 | 83.9 | > 100 | > 100 | > 100 | 91.1 | > 100 | > 100 | > 100 | 64.4 | > 100 | > 100 | > 100 | > 100 | > 100 | 69 | 31.1 | > 100 | 94.1
O=C(COC(c1ccc(F)cc1)c1ccc(F)cc1)N1CCN(CCCc2ccccc2)CC1 | 14.1 | 11.3 | 26.3 | 7.91 | 16.2 | 14.8 | 9.35 | 8.73 | 3.36 | 13.4 | 13.7 | 11.2 | 17.3 | 4.15 | 13.7 | 3.56 | 13 | 6.9 | 10.5 | 13.7
CC(=O)O[C@@]12[C@@H]3O[C@@]4(O)C[C@]5(C)[C@H]6C[C@@](C(C)C)(O[C@H]5c5ccoc5)O[C@H]1[C@]6(C4)O[C@]2(O)C(C)=CC3(C)C | > 100 | > 100 | > 100 | > 100 | > 100 | > 100 | > 100 | > 100 | > 100 | > 100 | > 100 | > 100 | > 100 | > 100 | > 100 | > 100 | > 100 | > 100 | > 100 | > 100
Cn1c2c(c3c(=O)[nH]ncc31)CCc1ccccc1-2 | 73.4 | > 100 | 67.4 | 71.4 | 41.7 | > 100 | > 100 | 94.4 | 81.1 | 91 | 78.2 | > 100 | > 100 | > 100 | 72.4 | 59.1 | > 100 | 35.1 | 64.2 | 72.2
COC(=O)C1=C(O)C(C(=O)OC)[C@]2(O)[C@H](C(=O)OC)[C@H]1C[C@@H](c1ccccc1OC)[C@H]2C(=O)OC (stereo not given in full) | 20.4 | 17.4 | 8.82 | 14.8 | 10.2 | 19.3 | > 76.1 | 20.7 | 13.3 | 4.79 | 11.2 | 14.6 | > 23.7 | 17.5 | 21.3 | 21.6 | 9.79 | 13.2 | 12.9 | 35.4
COc1ccc2cc(-c3ccc(OC)c(OC)c3)c(=O)oc2c1 | > 100 | > 100 | > 100 | > 100 | > 100 | > 100 | > 100 | > 100 | > 100 | > 100 | > 100 | > 100 | > 100 | > 100 | > 100 | > 100 | > 100 | > 100 | > 100 | > 100
